The text below walks through data of publication PMC10449418, “Adapting antibacterial display to identify serum-active macrocyclic peptide antibiotics” (PNAS Nexus, 2023).

No end group written: not given here.

For series [1], the system named is G. mellonella larvae. Put plainly: LD50 in G. mellonella larvae. Type of series: in vivo, Galleria mellonella. Particulars: single injection of a 100-mg/kg dose, death after 4 days, n = 10. As for the experimental part:
Live G. mellonella larvae were purchased from DBDPet. Larvae appearing fully healthy (no apparent melanization) and weighing between 200 and 300 mg were used for survival assays. Larvae were first injected into their second left proleg with 10 µl of PBS or PBS containing 1 × 10^6E. coli 25922 cells grown to an OD of 0.5 and washed in PBS. Injections were performed using a Hamilton 250-µl pipet equipped with an autodispenser and 30-gauge BD needle. […] Larvae groups were then incubated at 37°C for 72 h and observed for death. Larvae were determined to be dead if they were unable to right themselves after being placed on their back. Significance was determined by comparing Kaplan–Meier survival curves to untreated using a log-rank test (n ≥ 13 per sample).

For series [2], the system named is E. coli 25922. Description: PI uptake (outer and inner membrane permeabilization) assay. Particulars: 30 min of treatment, PBS + 50 mM glucose, 37°C, n = 3. In kind it is cell-based, Escherichia coli. From the text:
(§1) First, we performed two fluorescent membrane disruption assays using 1-N-phenylnaphthylamine (NPN) and propidium iodide (PI). Normally the outer membrane excludes hydrophobic molecules such as NPN, but when damaged, NPN can bind hydrophobic fatty acids within the membrane and fluoresce. PI fluoresces upon DNA binding but can only gain access to the cytoplasm if both the outer and inner membranes have been permeabilized. Antibiotics tested retained antimicrobial activity under the assay conditions used (Fig. S3A).
PI uptake was measured for E. coli 25922 as previously described ([20]). Briefly, single colonies from overnight growth on LB were inoculated into MH broth and grown to mid-log phase. Cells were then washed twice with PBS + 50 mM glucose and resuspended to an OD = 0.1 in PBS + 50 mM glucose. PI was added at a concentration of 10 µg/ml, and 50 µl of the PI cell mixture was quickly added to a preprepared 96-well plate (NUNC black-walled clear bottom plate) that contained 50 µl of various peptide concentrations. The plate was then allowed to incubate for 30 min in the dark at 37°C and was then read using the Biotek Synergy LX plate reader with the fluorescence red filter cube. Triplicate samples were normalized to nontreated wells and presented as a mean ± 1 SD (n = 3).

The subject of series [3] is E. coli 25922. Description: NPN outer membrane disruption assay. Type of series: cell-based, Escherichia coli. Particulars: 30 min of treatment, PBS, various concentrations, n = 3.
Excerpt: as §1
A culture of E. coli 25922 was grown overnight in liquid media at 37°C. The following day, it was back diluted 1:25 in LB media and grown at 37°C until an OD600 of 0.5. The culture was then pelleted at 1,000 g, washed once with PBS, and resuspended to a final concentration of OD600 0.5. […] Each sample was loaded in triplicate into a 96-well optical-bottom plate and serially diluted two-fold with final volumes of 50 µl in each well. Fifty microliters of the 40 µM NPN was then added to each well, followed by 100 µl of the bacterial cell suspension. After 30 min, the plate was transferred to a BioTek Synergy LX multimode reader for fluorescent measurements. Triplicate samples were normalized to nontreated wells and presented as a mean ± 1 SD (n = 3).

Series [4] concerns E. coli 25922. Put plainly: MBC in 100% human serum (HS). Type of series: cell-based, Escherichia coli. An excerpt:
Minimum inhibitory concentration (MIC) and minimum bactericidal concentration (MBC) assays are standard methods used to first examine antimicrobial potential. These assays are often performed against lab strains of bacteria grown in Mueller–Hinton (MH) media which is not representative of conditions found in the human body during infection. […] W3110 is a K12-derived strain and cannot grow in HS and lacks O-antigen on its cell surface in contrast to 25922. MBCs were used instead of MICs because HS was opaque, making bacterial growth difficult to observe by sight. We chose three cationic AMPs previously discovered using SLAY and four natural cationic AMPs, each with α-helical or β-hairpin secondary structure ([18–24]) (Table S1).

In series [5] the test system is E. coli 25922. Description: MIC (growth inhibition) in MH media. Type of series: cell-based, Escherichia coli. Particulars: 37°C, 18–24 h, examined by eye, median of three replicates.

Take `CC(C)C[C@H](NC(=O)[C@H](CCCNC(=N)N)NC(=O)CNC(=O)CNC(=O)[C@@H](N)CCCNC(=N)N)C(=O)N[C@H]1CSSC[C@@H](C(=O)N[C@H](C(=O)NCC(=O)N[C@@H](CCCNC(=N)N)C(N)=O)C(C)C)NC(=O)[C@H](C(C)C)NC(=O)[C@@H]2CSSC[C@H](NC(=O)[C@H](Cc3ccc(O)cc3)NC1=O)C(=O)N[C@@H](CCCNC(=N)N)C(=O)N[C@@H](CCCNC(=N)N)C(=O)N[C@@H](CCCNC(=N)N)C(=O)N[C@@H](Cc1ccccc1)C(=O)N2` [Protegrin-1]: the “LD50 for G. mellonella larvae” value in series [1] was “over 100 mg/kg”. In addition, the “PI uptake (outer and inner membrane permeabilization)” value in series [2] was “strong fluorescence of both NPN and PI”. The “NPN fluorescence (outer membrane permeation)” value in series [3] is “strong fluorescence of both NPN and PI”. Besides, the “serum activity (MBC in HS), in words” value in series [4] is reported as “retained the most activity in HS relative to MH”.
For Kanamycin, the “PI uptake (outer and inner membrane permeabilization)” value in series [2] is “no NPN fluorescence or PI uptake”. For the same compound, in series [3], the “NPN fluorescence (outer membrane permeation)” value is “no NPN fluorescence or PI uptake”. The “Antibiotic activity against E. coli 25922: MIC” value in series [5] stood at 4 µg/mL.
Regarding “KWCFRVCYRGICYRRCR-NH2 (disulfide (positions not given here)) [Tachyplesin-1, natural β-AMP]”, the “serum activity (MBC in HS), in words” value in series [4] is listed as “retained the most activity in HS relative to MH”.
